According to patent US9682151B2, “Peptides whose uptake in cells is controllable” (The Regents of the University of California, priority 2009, dated 2017):
Where two headings read alike, the source gives them in different places.

Experiments:
[1] = system: HT1080 human fibrosarcoma; test: Optical imaging of albumin reactive peptides in HT1080 tumor bearing mice; type: in vivo; details: 3 nmols IV, 24 hours
Protocol: (§1) Nude mice were injected with 2×^06HT1080 human fibrosarcoma cells in the left #2 mammary fat pad. Experiments were performed 5-7 days post injection. Polyoma Middle T mice (PyMT) were provided by Lesley Ellies and they were injected with peptide IV between 9-12 wks of age when medium to large sized tumors were present in each mammary fat pad. One million mouse mammary adenocarcinoma 4T1.2 cells (from Robyn Anderson, University of Melbourne) were injected into the left mammary fat pad of nude mice (FIGS. 4 and 7) and Balb/c mice (FIGS. 8 and 9) and 5-20 days later were injected with peptide and imaged.
(§2) When tumors were of sufficient size 5-20 days after injection of tumor cells the peptide was injected IV and imaged on the Maestro small animal imager (CRI). Animals were sacrificed by overdose with Isoflurane and dissected. To examine lung metastases, the lungs were inflated with OCT cryoprotectant and imaged on the small animal imager. Blood measurements were taken by bleeding the tail vein at a specified time point and collected in a capillary tube. The tubes were then imaged for presence of the Cy5 fluorescent peptide using the small animal imager. For processing of tissues for gels, 30 mg of tissue was homogenized in a 1% SDS Tris buffer then heated at 80° C. for 10 min and centrifuged. The supernatant was then diluted 1:10 and run on a tricine gel and imaged by fluorescence. […]

[2] = mouse, in vivo
Protocol: Peptides conjugated to 5 kD PEG and 12 kD PEG were injected into nude mice bearing HT-1080 xenografts at a dose of 6 nmoles per animal (FIG. 24). […] As controls, a scrambled version of the PLGLAG (SEQ ID NO: 1) cleavable sequence denoted as LALGPG (SEQ ID NO: 48) and a d-amino acid version of the PLGLAG (SEQ ID NO: 1) sequence denoted as plglag were also injected. […] Because of what was what was available at the time, the polyoma transgenic mice were tested in wildtype and iNOS−/− backgrounds.
As the last molecule in the large molecular weight carrier series, 1725 was a fifth generation PAMAM dendrimer conjugated to two MMP cleavable selective transport molecules. The remaining 126 attachment sites were capped with succinyl groups. […] This molecule was injected into both HT-1080 tumor bearing nude transgenic PyMT mice at varying concentrations.

[3] = system: HT-1080 tumor bearing nude / transgenic PyMT mice; details: mouse, in vivo
Protocol: Animals expressing the polyoma middle T transgene (PyMT) driven by the MMTV promoter were obtained from Lesley Ellies. Nude animals bearing HT-1080 xenografts were either generated in house or were obtained from Explora Biosciences. Either way, tumors were used once they reached a diameter of […]. Animals were anesthetized with ketamine/midazolam (80 mg/kg, 40 mg/kg) and injected with the indicated construct through the tail vein Animals were typically observed throughout the first hour as they woke up from anesthesia. They were re-anesthetized and imaged at six hours, 12 hours, 24 hours and 48 hours as needed. After the last imaging session, animals were sacrificed by overdose of halothane. The imaging system used evolved over time. For most of the PEGylated conjugates, a simple light box was used, though the image shown is one of the first taken with the Maestro spectral deconvolution imager. The albumin, dextran and PAMAM dendrimer conjugates were tested using a 620/20 excitation filter and collecting images at 680 nm. The streptavidin conjugates were tested using a 640/48 excitation filter, with images collected at 700 nm.
Standardized Uptake Values were initially measured without tissue specific calibrations and were later re-adjusted to take tissue specificity and a light source change into account. […]

4T1.2 tumor = test: Plasma pre-reaction of maleimide peptide, blood levels and tumor fluorescence; type: in vivo, mice; details: 48 hours
Protocol: as §1, §2

cells = test: Toxicity of podophyllotoxin conjugate in cell culture; type: cell-based
From the text: (§3) Therefore we synthesized Suc-e8-xPLGLAG-r9-c(ss-podophyllotoxin) to test in cell culture. […] In order to decide upon a starting dose, we tested podophyllotoxin by itself to determine the effective dose for shrinking tumors.

[4] = system: HT1080 human fibrosarcoma; details: for toxicity: 44 μmol/kg
Protocol: A selective transport molecule-Podophyllotoxin (selective transport molecule-podo) conjugate by reacting podo-ss-pyridine with Suc-e8-xPLGLAG-r9-c, purified by HPLC and confirmed by mass spectrometry. The peptide was stored as a TFA salt and the yield was determined by mass. For animal experiments, athymic nude mice were injected with 1×0^6HT1080 human fibrosarcoma cells in the mammary fat pad. After one week when tumors were 30-50 mm^3 mice were injected IP once every other day for a total of three times with 10 μmol/kg of either podophyllotoxin, selective transport molecule alone, or selective transport molecule-podo.
as §3
Three mice in each treatment group were injected with 3 doses, one dose every other day.

HT1080 tumor = test: Doxorubicin conjugated dendrimers in HT1080 tumor bearing mice; type: in vivo; details: single dose
Protocol: In multiple experiments, HT1080 bearing nude mice were injected with a single specific dose of doxorubicin dendrimer. […] Mouse weights and tumor volumes were measured regularly. For the urea and the Peg hydrazone dendrimers, mice were imaged spectrally 7 days after injection. Using the Maestro (CRI) spectral deconvolution system and software, doxorubicin fluorescence (red) was separated out from autofluorescence (green). Tumors were removed and imaged by spectral deconvolution and brightfield. For aromatic and thioether dendrimers there were 4 mice for each treatment group but only 2 mice for the urea and Peg hydrazone dendrimers because of limited dendrimer synthesis yields.

mouse serum albumin = target: T1, mouse serum albumin (Mus musculus, UniProt P07724); test: Reaction of maleimide peptide with albumin; details: within an hour of mixing, PAGE
T1 construct: Albumin reactive selective transport molecules create a robust reaction with native albumin; purchased Sigma
T1 sequence (P07724 25-608): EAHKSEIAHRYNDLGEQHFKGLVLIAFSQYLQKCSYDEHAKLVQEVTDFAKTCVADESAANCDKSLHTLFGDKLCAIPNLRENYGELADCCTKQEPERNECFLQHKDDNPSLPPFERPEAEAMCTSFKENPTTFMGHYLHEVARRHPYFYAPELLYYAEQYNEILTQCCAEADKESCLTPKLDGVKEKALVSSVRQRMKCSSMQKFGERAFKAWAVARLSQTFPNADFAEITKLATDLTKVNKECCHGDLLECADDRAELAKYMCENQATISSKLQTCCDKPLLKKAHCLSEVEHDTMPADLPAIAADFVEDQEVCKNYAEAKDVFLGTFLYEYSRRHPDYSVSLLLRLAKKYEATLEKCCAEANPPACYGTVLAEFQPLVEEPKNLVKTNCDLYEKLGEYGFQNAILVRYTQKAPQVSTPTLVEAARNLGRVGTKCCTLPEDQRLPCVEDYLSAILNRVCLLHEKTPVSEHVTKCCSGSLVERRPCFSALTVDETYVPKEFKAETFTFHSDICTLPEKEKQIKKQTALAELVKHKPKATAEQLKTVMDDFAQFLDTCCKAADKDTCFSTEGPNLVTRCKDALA
Protocol: (§4) Maleimide peptides were initially reacted with mouse serum albumin (Sigma) at 40 mg/mL or fresh frozen mouse plasma for one hour. Samples were run on a tricine buffered 10-20% polyacrylamide gel and imaged for Cy5 fluorescence on a UVP gel imager. For the enzyme cleavage assay, Cy5-monomaleimide and the cleavable maleimide peptides were reacted as 2 nmol with mouse serum albumin at 40 mg/mL in 25 mM hepes buffer. The stock was then diluted 1:[…] with 50 nM of recombinant MMP-9 (EMD Biosciences) and digested for 20 minutes and 4 hours then run on a tricine gel and imaged by Cy5.
(§5) Malemide selective transport molecule was reacted mouse serum albumin and plasma in aqueous conditions to determine that peptide reacts with albumin in a test tube. […] Plasma seemed to give somewhat more complete reaction.

recombinant MMP-9 = target: T2, recombinant MMP-9 (Homo sapiens, UniProt P14780); test: Enzyme cleavage assay of albumin reacted maleimide peptide; type: biochemical; details: 50 nM MMP-9
T2 construct: purchased EMD Biosciences
T2 sequence (P14780 94-707, species assumed): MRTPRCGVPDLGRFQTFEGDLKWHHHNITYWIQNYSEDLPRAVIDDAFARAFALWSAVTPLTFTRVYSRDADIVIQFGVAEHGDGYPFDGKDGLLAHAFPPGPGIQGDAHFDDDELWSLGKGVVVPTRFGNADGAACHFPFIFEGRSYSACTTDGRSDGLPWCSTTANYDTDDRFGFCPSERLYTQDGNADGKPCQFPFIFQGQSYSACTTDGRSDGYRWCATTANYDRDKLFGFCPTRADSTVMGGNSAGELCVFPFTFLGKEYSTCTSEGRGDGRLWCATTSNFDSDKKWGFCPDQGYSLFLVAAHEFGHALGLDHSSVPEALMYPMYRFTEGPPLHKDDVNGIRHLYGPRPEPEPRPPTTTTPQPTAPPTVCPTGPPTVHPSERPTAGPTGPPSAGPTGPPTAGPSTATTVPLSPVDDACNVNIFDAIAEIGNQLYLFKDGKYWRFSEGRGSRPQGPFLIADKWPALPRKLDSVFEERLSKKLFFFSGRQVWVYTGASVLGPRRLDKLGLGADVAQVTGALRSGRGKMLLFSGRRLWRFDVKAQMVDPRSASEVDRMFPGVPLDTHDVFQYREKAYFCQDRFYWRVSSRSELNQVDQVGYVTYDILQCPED
Protocol: as §4, §5

[5] = system: HT1080 human fibrosarcoma; details: 48-100 μmol/kg after multiple doses; cited from earlier work
[6] = 10 μmol/kg IP, 3 doses, one every other day

Suc-e8-xPLGLAG-r9-c(Cy5)
tumor uptake (Cy5 fluorescence) [1]: difficult to detect

12kD-PEG-e9-XPLGLAG-r9-k(cy5)
Approx Plasma Halflife [2]: ~20 m | blood halflife [2]: approximately 20 minutes

G5-PAMAM-[e9-XPLGLAX-r9-k(cy5)]2[PEG]126
Approx Plasma Halflife [2]: ~20 h | blood halflife [2]: over 10 hours

G5PAMAM-[e9-XPLGLAG-r9-k(cy5)][PEG]127 [G5PAMAM-[e9-XPLGLAG-r9-k(cy5)] [PEG]127]
tumor uptake relative to PLGLAX dendrimer [3]: decreased tumor uptake

Streptavidin-[e9-XPLGLAG-r9-k(cy5)]4
Approx Plasma Halflife [2]: ~4 h

G5PAMAM-[e9-OPLG(MeC)AG-r9-k(cy5)][PEG]127]
liver uptake relative to PLGLAX dendrimer [3]: decrease by a factor of two

Generation 5 PAMAM-(e9-XPLGLAX-r9-k(cy5))2(succ)126
blood halflife, first phase (biphasic) [2]: under 10 minutes | blood halflife, second phase (biphasic) [2]: 10 to 15 h

Cy5-monomaleimide
tumor fluorescence / uptake (4T1.2 tumor): significantly less fluorescence

Suc-e8-xPLGLAG-r9-c(ss-podophyllotoxin) [selective transport molecule-podo]
toxicity on cells (cells): submicromolar toxicity | body weight ([4]; 10 μmol/kg IP, 3 doses): lost significant weight | effect on tumor growth [4, 6]: modest slowing of growth | toxicity [4]: acutely toxic

COc1cccc2c1C(=O)c1c(O)c3c(c(O)c1C2=O)C[C@@](O)(C(=O)CO)C[C@@H]3O[C@H]1C[C@H](N)[C@H](O)[C@H](C)O1 [doxorubicin]
anti-tumor activity (qualitative) (HT1080 tumor): continually beat the dendrimers in anti-tumor activity

mal-e9-oPLG(Cme)AG-r9-c(cy5)
reaction with mouse serum albumin or plasma (mouse serum albumin): most of the peptide reacted with MSA or plasma albumin | tumor uptake (Cy5 fluorescence) [1]: much greater with the cleavable peptide compared to the uncleavable peptide | time to near complete cleavage off albumin (recombinant MMP-9): less than 4 hours

COc1cc([C@@H]2c3cc4c(cc3[C@H](O)[C@H]3COC(=O)[C@H]23)OCO4)cc(OC)c1OC [podophyllotoxin, reference compound]
toxicity (literature) [5]: minimal toxicity | effect on tumor growth [4, 6]: not efficacious | effect on tumor growth ([4]; 10 μmol/kg IP, 3 doses, one every other day, listed as Podo): no therapeutic activity or toxicity | toxicity [4]: no obvious signs of toxicity | effect on tumor growth ([4]; 3 injections at 44 μmol/kg every other day): sufficient to significantly slow tumor growth but not provide a cure
